≈ marks a conversion by molar mass, not a printed value. Structures can show the parent of a compound that is named as a salt. Where two headings read alike, the source gives them in different places.
What was measured:
[1] = system: C. perfringens or S. pyogenes; type: in vivo, mice
[2] = Stability in acidic and alkaline solution; type: physicochemical; conditions: for stability in alkaline solution: relative to acidic
[3] = system: two anaerobic and one aerobic organisms; experiment: Bactericidal activity; type: cell-based
[4] = system: Neisseria meninigitidis A21496; experiment: MIC, serial two-fold agar dilution, aerobic bacteria; type: cell-based; conditions: Nm-4, medium B: GC medium (Eiken)
S. pyogenes A20201 = experiment: Systemic infection with S. pyogenes in mice; type: in vivo; conditions: po; 5 days
[5] = system: Klebsiella pneumoniae A9678; experiment: MIC, serial two-fold agar dilution, aerobic bacteria; type: cell-based; conditions: Kp-2; medium A: Nutrient agar (Eiken)
aerobic bacteria = experiment: antibacterial activity against aerobic bacteria; type: cell-based; conditions: for activity against usual aerobic organisms: E. coli and K. pneumoniae; for susceptibility of Bacillus species, streptococci, Neisseria meningitidis, N. gonorrhoeae and Hemophilus influenzae: in vitro
[6] = system: various aerobic and anaerobic organisms; experiment: Antibacterial spectrum; conditions: variety of anaerobic bacteria and some aerobic bacteria
C. perfringens A9635 = type: in vivo, mice; conditions: po; 5 days
B. fragilis A20928-1 = experiment: Inoculum size effect on MIC; type: cell-based; conditions: Bacteroides fragilis, A209281, read-out: MIC in GAM broth, GAM broth; inoculum […] 10^6 cell/ml
Solubility = type: physicochemical; conditions: lower alcohols, ethyl acetate, chloroform and benzene
B. fragilis A20926 = experiment: Localized infection with B. fragilis in mice; type: in vivo
[7] = system: Neisseria meninigitidis A20049; experiment: MIC, serial two-fold agar dilution, aerobic bacteria; type: cell-based
[8] = subcutaneous and oral
bacterial RNA polymerase = conditions: Antimicrobial Agents and Chemotherapy 1976, page 618; cited from earlier work
[9] = system: Escherichia coli K-12 A9632; experiment: MIC, serial two-fold agar dilution, aerobic bacteria; conditions: K12A9632
[10] = Nm-2, medium B: GC medium (Eiken), read-out: MIC

With `COC(=O)C1C(C)OC2(C)CC(=O)C3OC12OC(C(C)/C=C(C)/C=C/C(=O)C1=C(O)CN(C)C1=O)C3C` (centres unmarked) [Bu-2313A] the “activity by the oral route” value ([1]; oral) was “inactive”, the “stability in acidic solution” value [2] was “stable” and the “stability in alkaline solution” value [2] was “less so”. For the same compound, the “type of antibacterial action” value [3] was “bacteriostatic rather than bactericidal”, the MIC [4] was 3.1 µg/mL (≈ 5.99 µM) and the PD50 (S. pyogenes A20201) was “NA at 25”. For the same compound, the MIC [5] was “> meningitidis”, the “activity against usual aerobic organisms” value (aerobic bacteria) was “only moderate to weak activity” and the “susceptibility of Bacillus species, streptococci, Neisseria meningitidis, N. gonorrhoeae and Hemophilus influenzae” value (aerobic bacteria) was “susceptible”. The antibacterial activity [6] was “exhibit antibacterial activity”, the PD50 (C. perfringens A9635) was “NA at 50” and the MIC (B. fragilis A20928-1) was 0.006 µg/mL (≈ 0.0116 µM). The “solubility in most organic solvents” value (Solubility) was “readily soluble”.

Work on `COC(=O)C1C(C)OC2(C)CC(=O)C3OC12OC(C(C)/C=C(C)/C=C/C(=O)C1=C(O)CNC1=O)C3C` (centres unmarked) [Bu-2313B (Na salt)] yielded a mean score (B. fragilis A20926; oral, 6.3 × 5 mg/kg) of 3.4, a sum of score (B. fragilis A20926; oral, 6.3 × 5 mg/kg) of 17 and a mean score (B. fragilis A20926; oral, 25 × 5 mg/kg) of 3.0. It also gave a sum of score (B. fragilis A20926; oral, 25 × 5 mg/kg) of 15, a mean score (B. fragilis A20926; oral, 100 × 5 mg/kg) of 2.4 and a sum of score (B. fragilis A20926; oral, 100 × 5 mg/kg) of 12. The mean score (B. fragilis A20926; oral, […] 5 mg/kg) was 4.0, the sum of score (B. fragilis A20926; oral, […] 5 mg/kg) was 20 and the mean score (B. fragilis A20926; subcutaneous, 0.8 × 5 mg/kg) was 4.0. For the same compound, the sum of score (B. fragilis A20926; subcutaneous, 0.8 × 5 mg/kg) was 20, the mean score (B. fragilis A20926; subcutaneous, 3.1 × 5 mg/kg) was 3.4 and the sum of score (B. fragilis A20926; subcutaneous, 3.1 × 5 mg/kg) was 17. The mean score (B. fragilis A20926; subcutaneous, 50 × 5 mg/kg) was 2.2, the sum of score (B. fragilis A20926; subcutaneous, 50 × 5 mg/kg) was 11 and the mean score (B. fragilis A20926; subcutaneous, […] 5 mg/kg) was 2.8. The sum of score (B. fragilis A20926; subcutaneous, […] 5 mg/kg) was 14.

With `COC(=O)C1C(C)OC2(C)CC(=O)C3OC12OC(C(C)/C=C(C)/C=C/C(=O)C1=C(O)CNC1=O)C3C` (centres unmarked) [Bu-2313B] the “protection against systemic infections” value ([1]; both subcutaneous and oral administration) was “fairly good protection”, the “stability in acidic solution” value [2] was “stable” and the “stability in alkaline solution” value [2] was “less so”. The “type of antibacterial action” value [3] was “bacteriostatic rather than bactericidal”, the MIC [4] was 1.6 µg/mL (≈ 3.18 µM) and the MIC [7, 10] was 0.8 µg/mL (≈ 1.59 µM). The “activity against usual aerobic organisms” value (aerobic bacteria) was “only moderate to weak activity”, the “susceptibility of Bacillus species, streptococci, Neisseria meningitidis, N. gonorrhoeae and Hemophilus influenzae” value (aerobic bacteria) was “susceptible” and the antibacterial activity [6] was “exhibit antibacterial activity”. For the same compound, the “solubility in most organic solvents” value (Solubility) was “readily soluble”.

With `CCC[C@@H]1C[C@@H](C(=O)N[C@@H]([C@H]2O[C@H](SC)[C@H](O)[C@@H](O)[C@H]2O)[C@H](C)Cl)N(C)C1` [Clindamycin] the mean score (B. fragilis A20926; oral, 6.3 × 5 mg/kg) was 2.6, the sum of score (B. fragilis A20926; oral, 6.3 × 5 mg/kg) was 13 and the mean score (B. fragilis A20926; oral, 25 × 5 mg/kg) was 1.8. For the same compound, the sum of score (B. fragilis A20926; oral, 25 × 5 mg/kg) was 9, the sum of score (B. fragilis A20926; oral, 100 × 5 mg/kg) was 2 and the mean score (B. fragilis A20926; oral, […] 5 mg/kg) was 4.0. It also gave a sum of score (B. fragilis A20926; oral, […] 5 mg/kg) of 20, a mean score (B. fragilis A20926; subcutaneous, 0.8 × 5 mg/kg) of 4.0 and a sum of score (B. fragilis A20926; subcutaneous, 0.8 × 5 mg/kg) of 20. It also gave a mean score (B. fragilis A20926; subcutaneous, 3.1 × 5 mg/kg) of 2.0, a sum of score (B. fragilis A20926; subcutaneous, 3.1 × 5 mg/kg) of 10 and a mean score (B. fragilis A20926; subcutaneous, 50 × 5 mg/kg) of 0.8. It also gave a sum of score (B. fragilis A20926; subcutaneous, 50 × 5 mg/kg) of 4, a mean score (B. fragilis A20926; subcutaneous, […] 5 mg/kg) of 1.4 and a sum of score (B. fragilis A20926; subcutaneous, […] 5 mg/kg) of 7. For the same compound, the MIC [7] was 0.05 µg/mL (≈ 0.118 µM).

Work on `Cc1ncc([N+](=O)[O-])n1CCO` [Flagyl] yielded a mean score (B. fragilis A20926; oral, 6.3 × 5 mg/kg) of 3.4, a sum of score (B. fragilis A20926; oral, 6.3 × 5 mg/kg) of 17 and a mean score (B. fragilis A20926; oral, 25 × 5 mg/kg) of 2.6. It also gave a sum of score (B. fragilis A20926; oral, 25 × 5 mg/kg) of 13, a mean score (B. fragilis A20926; oral, 100 × 5 mg/kg) of 1.6 and a sum of score (B. fragilis A20926; oral, 100 × 5 mg/kg) of 8. For the same compound, the mean score (B. fragilis A20926; oral, […] 5 mg/kg) was 4.0, the sum of score (B. fragilis A20926; oral, […] 5 mg/kg) was 20 and the mean score (B. fragilis A20926; subcutaneous, 0.8 × 5 mg/kg) was 4.0. It also gave a sum of score (B. fragilis A20926; subcutaneous, 0.8 × 5 mg/kg) of 20, a mean score (B. fragilis A20926; subcutaneous, 3.1 × 5 mg/kg) of 3.4 and a sum of score (B. fragilis A20926; subcutaneous, 3.1 × 5 mg/kg) of 17. For the same compound, the mean score (B. fragilis A20926; subcutaneous, 50 × 5 mg/kg) was 2.0, the sum of score (B. fragilis A20926; subcutaneous, 50 × 5 mg/kg) was 10 and the mean score (B. fragilis A20926; subcutaneous, […] 5 mg/kg) was 2.4. For the same compound, the sum of score (B. fragilis A20926; subcutaneous, […] 5 mg/kg) was 12 and the “absorption relative to Bu-2313B” value [8] was “better absorptions than Bu-2313B”.

In the case of `CC(/C=C/C(=O)C1=C(O)CNC1=O)=C\C(C)C1OC2(C)OC(C(=O)C3OC32C)C1C` (centres unmarked) [Tirandamycin], the “inhibition of bacterial RNA polymerase” value (bacterial RNA polymerase) is given as “inhibitor of bacterial RNA polymerase”, the MIC [4] is given as 0.8 µg/mL (≈ 1.92 µM) and the MIC [9] is given as 100 µg/mL (≈ 240 µM). For the same compound, the MIC [7, 10] was 0.8 µg/mL (≈ 1.92 µM).

In the case of `CNC(=O)C(C)C1C(O)=C(C(=O)/C=C/C(C)=C/C(C)C2OC3(C)OC(C=CC34CO4)C2C)C(=O)N1C1CCC(O)C(C)O1` (centres unmarked) [streptolydigin], the “inhibition of bacterial RNA polymerase” value (bacterial RNA polymerase) is listed as “inhibitor of bacterial RNA polymerase in a manner similar to streptolydigin”.

From US4181574A, “Production of antibiotics by fermentation of novel strains of Micropolyspora caesia” (priority 1978, dated 1980)
